These results are taken from ChEMBL document CHEMBL5346904 (Eur J Med Chem, 2023).

In brackets after ≈: the same amount, converted by molar mass. Activity calls are given as the source filed them. No cut-off for these calls is given here.

For orientation: MIC means the lowest concentration found to suppress growth. As usually defined, the EC50 is the concentration needed to bring the measured effect to its halfway point.

Data set [1] deals with Escherichia coli. Kind of data set: Antimicrobial activity against Escherichia coli K12 assessed as inhibition of bacterial growth incubated for 48 hrs by CLSI based broth microdilution method. It counts as functional. A general note: In broth dilution the organism is exposed to a series of concentrations in liquid medium.
Data set [2] deals with Bacillus subtilis. Kind of data set: Antimicrobial activity against Bacillus subtilis 168 assessed as inhibition of bacterial growth incubated for 48 hrs by CLSI based broth microdilution method. It counts as functional.
Data set [3] has as its system Bacillus subtilis. The data set is described as follows: Antibacterial activity against Bacillus subtilis 168 assessed as reduction in bacterial viability at 1.6 to 51.2 microg/ml measured after 3 min. The format is functional, organism-based. The following applies: dose 1.6-51.2 µg/ml.
The subject of data set [4] is Cell membrane. The data set is described as follows: Disruption of membrane integrity in Bacillus subtilis 168 measured for 180 sec by luciferase based bioluminescence assay. The format is subcellular. The following applies: dose 1.6-51.2 µg/ml.
Data set [5] in a line: Selectivity index, ratio of EC50 for hemolytic activity in human RBC assessed as hemolysis to MIC for antimicrobial activity against Escherichia coli ATCC 25922 assessed as inhibition of bacterial growth. The note with it: human red blood cells (erythrocytes), read-out: Selectivity Index. The format is toxicity.
Data set [6] concerns Escherichia coli. The data set is described as follows: Antibacterial activity against Escherichia coli K12 assessed as reduction in bacterial viability at 1.6 to 51.2 microg/ml measured for 3 min. It counts as functional, organism-based. The following applies: dose 1.6-51.2 µg/ml.
Data set [7] is described as follows: Hemolytic activity in human RBC assessed as hemolysis incubated for 1 hr by absorbance based microplate reader analysis. The format is toxicity, cell-based, Erythrocyte. The following applies: human red blood cells (erythrocytes).
Data set [8] relates to Cell membrane. The data set is described as follows: Disruption of inner membrane integrity in Escherichia coli K12 at 51.2 microg/ml measured for 180 sec by luciferase based bioluminescence assay. It counts as subcellular. The note with it: dose 51.2 µg/ml.
The test system of data set [9] is Cell membrane. The data set is described as follows: Disruption of membrane integrity in Bacillus subtilis 168 at 25.6 to 51.2 microg/ml measured for 180 sec by luciferase based bioluminescence assay. The note with it: dose 25.6-51.2 µg/ml.
In data set [10] the test system is Cell membrane. Kind of data set: Disruption of membrane integrity in Bacillus subtilis 168 at 25.6 microg/ml measured for 180 sec by luciferase based bioluminescence assay. The note with it: dose 25.6 µg/ml. The format is subcellular.
Data set [11] concerns Cell membrane. The data set is described as follows: Induction of outer membrane permeabilization in Escherichia coli K12 assessed as increase in fluorescence intensity at 1.6 to 51.2 microg/ml measured for […] by NPN uptake assay. It counts as subcellular. The note with it: dose 1.6-51.2 µg/ml.
Data set [12] in a line: Selectivity index, ratio of EC50 for hemolytic activity in human RBC assessed as hemolysis to MIC for antimicrobial activity against Bacillus subtilis 168 assessed as inhibition of bacterial growth. The format is toxicity. The following applies: human red blood cells (erythrocytes), read-out: Selectivity Index.
The test system of data set [13] is Escherichia coli. Kind of data set: Antibacterial activity against Escherichia coli K12 assessed as reduction in bacterial viability measured for 3 min. The format is functional, organism-based. The following applies: dose 1.6-51.2 µg/ml.
Data set [14] can be described thus: Selectivity index, ratio of EC50 for hemolytic activity in human RBC assessed as hemolysis to MIC for antimicrobial activity against Staphylococcus aureus ATCC 9144 assessed as inhibition of bacterial growth. It counts as toxicity. The note with it: human red blood cells (erythrocytes), read-out: Selectivity Index.
The test system of data set [15] is Escherichia coli. The data set is described as follows: Antibacterial activity against Escherichia coli K12 assessed as reduction in bacterial viability at 51.2 microg/ml measured for 3 min. The following applies: dose 51.2 µg/ml. It counts as functional, organism-based.
The subject of data set [16] is Cell membrane. The data set is described as follows: Disruption of inner membrane integrity in Escherichia coli K12 at 51.2 microg/ml measured for 3 mins by luciferase based bioluminescence assay. It counts as subcellular. The following applies: dose 51.2 µg/ml.
Another data set concerns Staphylococcus aureus. The data set is described as follows: Antimicrobial activity against Staphylococcus aureus ATCC 9144 assessed as inhibition of bacterial growth incubated for 48 hrs by CLSI based broth microdilution method. It counts as functional.
Data set [17] concerns Escherichia coli. Kind of data set: Antimicrobial activity against Escherichia coli ATCC 25922 assessed as inhibition of bacterial growth incubated for 48 hrs by CLSI based broth microdilution method. The format is functional.
A further data set has as its system Pseudomonas aeruginosa. The data set is described as follows: Antimicrobial activity against Pseudomonas aeruginosa ATCC 27853 assessed as inhibition of bacterial growth incubated for 48 hrs by CLSI based broth microdilution method. The format is functional.
The subject of data set [18] is Cell membrane. The data set is described as follows: Disruption of inner membrane integrity in Escherichia coli K12 at 1.6 to 25.6 microg/ml measured for 3 mins by luciferase based bioluminescence assay. It counts as subcellular. The following applies: dose 1.6-25.6 µg/ml.
Data set [19] concerns Cell membrane. Kind of data set: Disruption of outer membrane integrity in Escherichia coli K12 assessed as increase in fluorescence intensity at 51.2 microg/ml measured for 3 mins by NPN uptake assay. It counts as subcellular. The following applies: dose 51.2 µg/ml.

For `N=C(NCCCCCCNC(=N)NC(=N)Nc1ccc(Cl)cc1)NC(=N)Nc1ccc(Cl)cc1` [CHLORHEXIDINE], the MIC in the data set with Escherichia coli [1] and in the data set on Bacillus subtilis [2] was 1.5 mg/L (≈ 2.97 µM) throughout.
As for `N=C(N)NCCCCN1C(=O)N(CCCCNC(=N)N)C(Cc2ccc(Br)c(Cl)c2)(Cc2ccc(Br)c(Cl)c2)C1=O.O=C(O)C(F)(F)F.O=C(O)C(F)(F)F`, the result with Bacillus subtilis [3], in the data set with Cell membrane [9], with Cell membrane [10], in the data set with Cell membrane [11], in the data set with Escherichia coli [15] and with Cell membrane [16] was Active. For the same compound, in the data set with Cell membrane [19], the outcome was Active. Moreover, the Activity result in the data set on Cell membrane [4] and with Escherichia coli [13] was “Dose-Dependent Effect” each time. The selectivity ratio in data set [5] came out at 43; in data set [12], 347; in data set [14], 347. Besides, the outcome in the data set with Escherichia coli [6], with Cell membrane [8] and with Cell membrane [18] was inactive. In data set [7], the EC50 at 1 h is 347 mg/L. The MIC in the data set with Bacillus subtilis [2] is 1 mg/L; in the data set with Staphylococcus aureus, 1 mg/L; in the data set with Escherichia coli [17], 8 mg/L; in the data set with Pseudomonas aeruginosa it was 32 mg/L.
